This note sets out measurements from patent publication US10913736B2 (UNIVERSITY OF WASHINGTON, priority 2014, dated 2021).

Molecules are shown by their SMILES. Converted amounts (≈) assume the structure as drawn. “And” between values parts separate entries of the source, which are not always exact repeats. Identical values can stand only once. Some results are limits rather than exact numbers.

The target of one test is MetRS (T. brucei) (Trypanosoma brucei brucei, UniProt Q38C91). The experiment in a line: MetRS (T. brucei) ATP depletion assay using Kinase-Glo. Format: biochemical.
In another test the target is MetRS (S. aureus) (Staphylococcus aureus, UniProt Q5HII6). The experiment in a line: biochemical. Particulars: ATP depletion, Kinase-Glo; read-out: H) MetRS (S. aureus) ATP depletion assay using Kinase-Glo with modified cpd dilution method, IC50.
For the next test, the system named is T. brucei. The experiment in a line: Growth inhibition assay of T. brucei cell cultures (Alamar Blue, 48 h). Type of test: cell-based. To be noted: Trypanosoma brucei; read-out: B) T. brucei EC50.
A further test has as its system S. aureus (ATCC 29213). Put plainly: S. aureus (ATCC 29213) MIC/EC50. Type of test: cell-based. To be noted: Staphylococcus aureus, ATCC29213; S. aureus ATCC 29213; read-out: I) S. aureus (ATCC 29213) MIC/EC50, MIC.
The test system of a further test is T. cruzi. The experiment in a line: T. cruzi growth inhibition EC50. Particulars: Trypanosoma cruzi; read-out: C) T. cruzi EC50. Format: cell-based.
Test [1] has as its system S. aureus MRSA (ATCC 43300). The experiment in a line: S. aureus MRSA (ATCC 43300) MIC/EC50. Format: cell-based. To be noted: Staphylococcus aureus; S. aureus MRSA ATCC 43300; read-out: J) S. aureus MRSA (ATCC 43300) MIC/EC50, MIC.
The test system of the next test is L. amaz. The experiment in a line: L. amaz growth inhibition EC50. Particulars: read-out: F) L. amaz EC50. Type of test: cell-based.

Sequence of MetRS (S. aureus) (Q5HII6 whole entry): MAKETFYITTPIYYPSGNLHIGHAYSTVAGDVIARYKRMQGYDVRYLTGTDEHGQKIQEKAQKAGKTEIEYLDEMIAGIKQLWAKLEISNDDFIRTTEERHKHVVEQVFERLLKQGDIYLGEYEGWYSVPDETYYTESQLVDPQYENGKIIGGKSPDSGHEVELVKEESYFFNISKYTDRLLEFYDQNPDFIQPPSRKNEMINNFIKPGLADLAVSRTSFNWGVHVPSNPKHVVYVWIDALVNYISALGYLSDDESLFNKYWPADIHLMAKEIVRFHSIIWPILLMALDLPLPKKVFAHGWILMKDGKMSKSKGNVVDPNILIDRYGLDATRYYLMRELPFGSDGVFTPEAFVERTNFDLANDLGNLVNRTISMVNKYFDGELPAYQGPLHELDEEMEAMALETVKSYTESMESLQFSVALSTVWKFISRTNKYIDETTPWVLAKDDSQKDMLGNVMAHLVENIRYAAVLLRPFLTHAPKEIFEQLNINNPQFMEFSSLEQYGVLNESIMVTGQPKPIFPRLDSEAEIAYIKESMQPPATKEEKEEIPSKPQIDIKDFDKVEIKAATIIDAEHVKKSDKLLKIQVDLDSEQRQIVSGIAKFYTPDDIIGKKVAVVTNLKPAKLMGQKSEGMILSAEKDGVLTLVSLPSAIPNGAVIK
Sequence of MetRS (T. brucei) (Q38C91 entry or part of it): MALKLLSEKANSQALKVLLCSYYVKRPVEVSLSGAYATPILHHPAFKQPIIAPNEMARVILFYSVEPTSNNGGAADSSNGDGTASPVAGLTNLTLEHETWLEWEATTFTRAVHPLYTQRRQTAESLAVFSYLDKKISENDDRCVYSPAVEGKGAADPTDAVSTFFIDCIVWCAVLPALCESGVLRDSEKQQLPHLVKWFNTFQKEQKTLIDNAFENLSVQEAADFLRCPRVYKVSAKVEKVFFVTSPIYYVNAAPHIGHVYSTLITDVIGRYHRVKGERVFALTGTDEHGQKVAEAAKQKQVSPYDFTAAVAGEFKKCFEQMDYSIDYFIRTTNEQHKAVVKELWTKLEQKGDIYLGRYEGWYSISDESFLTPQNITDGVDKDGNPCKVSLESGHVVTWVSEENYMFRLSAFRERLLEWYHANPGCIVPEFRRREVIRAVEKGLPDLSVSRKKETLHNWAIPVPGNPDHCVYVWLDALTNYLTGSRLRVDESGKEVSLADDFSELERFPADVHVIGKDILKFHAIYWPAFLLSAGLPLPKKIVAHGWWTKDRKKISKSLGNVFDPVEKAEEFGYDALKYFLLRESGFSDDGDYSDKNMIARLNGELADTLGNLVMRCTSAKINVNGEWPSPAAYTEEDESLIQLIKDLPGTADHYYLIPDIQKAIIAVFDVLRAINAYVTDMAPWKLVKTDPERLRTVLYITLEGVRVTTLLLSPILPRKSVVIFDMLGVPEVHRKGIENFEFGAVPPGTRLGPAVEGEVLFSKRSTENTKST

As to `O=c1c(NCc2nc3ccccc3[nH]2)c(NCc2ccc(Cl)cc2Cl)c1=O` [Compound 1769, 3-[(H-Benzoimidazol-2-ylmethyl)-amino]-4-(2,4-dichloro-benzylamino)-cyclobut-3-ene-1,2-dione], the figures for the IC50 on MetRS (T. brucei) and on MetRS (S. aureus) were 11 nM and 95 nM, respectively. Further, the values for the EC50 in the test with T. brucei and with T. cruzi were 1070 nM and more than 5000 nM, respectively. In addition, the MIC (in the test on S. aureus (ATCC 29213); in test [1]) was more than 10 µg/mL in each case.
Take `O=C(/C=C/Oc1ccc(Cl)cc1Cl)NCc1nc2ccc(F)nc2[nH]1` [Compound 1768, 3-(2,4-Dichloro-phenoxy)-N-(5-fluoro-3H-imidazo[4,5-b]pyridin-2-ylmethyl)-acrylamide]: the IC50 stood at 18 nM on MetRS (T. brucei) and 30 nM at MetRS (S. aureus). The EC50 was 70.2 nM in the test with T. brucei, 1690 nM in the test on T. cruzi and more than 1000 nM with L. amaz. In addition, the MIC (in the test with S. aureus (ATCC 29213); in test [1]) was more than 10 µg/mL throughout.
Regarding `O=C(Cc1cc(Cl)cc(Cl)c1)N1CCCC(c2nc3cc(Cl)ccc3[nH]2)C1` (stereo not shown) [Compound 1734, 1-(3-(5-chloro-1H-benzo[d]imidazol-2-yl)piperidin-1-yl)-2-(3,5-dichlorophenyl) ethanone], the IC50 was found to be 60 nM against MetRS (T. brucei) and 2440 nM on MetRS (S. aureus). The EC50 in the test on T. brucei was found to be 1400 nM; in the test with T. cruzi, 4910 nM. Besides, the MIC (in the test on S. aureus (ATCC 29213); in test [1]) was more than 10 µg/mL in each case.
Regarding `Clc1cc(Cl)cc(CNCCc2nc3ccc(Cl)cc3[nH]2)c1` [Compound 1767, [2-(6-chloro-1H-1,3-benzodiazol-2-yl)ethyl][(3,5-dichlorophenyl)methyl]amine], the IC50 is 51 nM at MetRS (T. brucei) and more than 1000 nM at MetRS (S. aureus). The EC50 amounted to 627 nM with T. brucei and 2930 nM in the test on T. cruzi. Besides, the MIC was more than 10 µg/mL in the test on S. aureus (ATCC 29213) and 10 µg/mL (≈ 28.2 µM) in test [1].
With `O=C(Cc1cc(Cl)cc(Cl)c1)N1CCCC(c2nc3nc(F)ccc3[nH]2)C1` (stereo not shown) [Compound 1761, 2-(3,5-dichlorophenyl)-1-(3-(5-fluoro-1H-imidazo[4,5-b]pyridin-2-yl)piperidin-1-yl)ethanone], the IC50 at MetRS (T. brucei) was found to be 54 nM; on MetRS (S. aureus), 1910 nM. The results for the EC50 in the test with T. brucei and in the test with T. cruzi were 996 nM and more than 5000 nM, respectively. In addition, the MIC (in the test on S. aureus (ATCC 29213); in test [1]) was more than 10 µg/mL throughout.
As for `N[C@@H](CC(=O)NCc1nc2ccccc2[nH]1)Cc1ccc(Cl)cc1Cl` [Compound 1720, (R)—N-((1H-benzo[d]imidazol-2-yl)methyl)-3-amino-4-(2,4-dichlorophenyl)butanamide], the results for the IC50 against MetRS (T. brucei) and at MetRS (S. aureus) were 70 nM and 181 nM, respectively. Further, the EC50 in the test on T. brucei stood at 848 nM; in the test on T. cruzi, 3700 nM. The MIC (with S. aureus (ATCC 29213); in test [1]) was more than 10 µg/mL throughout.
In the case of `C[C@@H](CNCc1cc(Cl)cc(Cl)c1)CNc1nc2nc(F)ccc2[nH]1` [Compound 1673, [(3,5-dichlorophenyl)methyl][(2S)-3-({5-fluoro-3H-imidazo[4,5-b]pyridin-2-yl}amino)-2-methylpropyl]amine], the IC50 was found to be 11 nM at MetRS (T. brucei) and 113 nM at MetRS (S. aureus). Besides, the MIC (in the test with S. aureus (ATCC 29213); in test [1]) was 5 µg/mL (≈ 13.1 µM) each time. Besides, the EC50 is 1540 nM in the test with T. cruzi; 7860 nM and 5710 nM and 8280 nM in the test with L. amaz.
Regarding `O=C(NCc1nc2ccccc2[nH]1)OCCc1ccc(Cl)cc1Cl` [Compound 1701, 2-(2,4-dichlorophenyl)ethyl N-(1H-1,3-benzodiazol-2-ylmethyl)carbamate], the IC50 against MetRS (T. brucei) worked out at 5 nM; at MetRS (S. aureus), 67 nM. Also, the EC50 in the test with T. brucei turned out to be 1290 nM; in the test with T. cruzi, 8750 nM. Moreover, the MIC (with S. aureus (ATCC 29213); in test [1]) was more than 10 µg/mL in each case.
